These are literature values, as cited in patent US10399920B2, “Crystalline form of cannabidiol” (S&B Pharma, Inc., priority 2016, dated 2019).

Each structure is given as a SMILES string.

This data set relates to epilepsy. The settings on record: animal studies; dosed at 50 and 100 mg/kg intra-peritoneally; Cannabidiol prepared by non-synthetic methods.

`C=C(C)[C@@H]1CCC(C)=C[C@H]1c1c(O)cc(CCCCC)cc1O` [Cannabidiol]: the reducing mortality result is “effective in reducing mortality”.
